Measured values: patent US12421210B2, “Fused bicyclic heterocycles as therapeutic agents” (NEW YORK UNIVERSITY, priority 2018, dated 2025)
Where two headings read alike, the source gives them in different places.

Molecular target: human NAMPT enzyme (His-hNAMPT) (Homo sapiens (Human), UniProt P43490)
Test: NAMPT enzymatic inhibition assay (fluorescence, NADH product)
Assay type: biochemical
Method: The compounds were then diluted 20 fold in an intermediate dilution to 5% DMSO and water. Finally 10 μL of each compound was added to the assay plate, in duplicate, with highest concentration at 30 μM and the lowest at 0.001 μM in a final volume of 50 μL and 1% DMSO concentration. Each assay also tested, in parallel, two reference compounds, FK866 and GMX1778, with highest concentration at 10 μM and lowest at 0.0003 μM. 200 ng of human NAMPT enzyme (His-hNAMPT obtained from E. coli expression system) diluted in […] (tris-buffered saline-Polysorbate 20) 1× was added to each well in a volume of 10 μL and the compounds were incubated with the enzyme at room temperature for 20 minutes. After the incubation, 30 μL of master mixture were added to each well. The master mixture contained: 50 mM Tris-HCl, pH 8.0, 12.5 mM MgCl2, 20 μM nicotinamide, 40 μM phosphoribosyl pyrophosphate (PRPP), 20 μM adenosine triphosphate (ATP), 30 μg/mL of alcohol dehydrogenase, 10 μg/mL of NMNAT, 1.5% alcohol, 1 mM dithiothreitol (DTT), 0.02% bovine serum albumin (BSA), 0.01% Tween 20. The reaction was performed at 30° C. for 60 minutes. Fluorescence intensity was measured at an excitation of 340 nm and an emission of 460 nm using a Tecan Infinite M1000 microplate reader. The fluorescence values indicated increase of NADH product.
Enzyme activity assay was performed in duplicate at each concentration. The fluorescence data was analyzed and compared. In the absence of the compound, the intensity (Ce) in each data set was defined as 100% activity. In the absence of enzyme, the intensity (C0) in each data set was defined as 0% activity. The percent activity in the presence of each compound was calculated according to the following equation: % activity=(C−C0)/(Ce−C0), where C is the fluorescence in the presence of the compound.
The % activity vs. compound concentrations were then plotted using non-linear regression analysis of Sigmoidal dose-response curve generated with the equation Y=B+(T−B)/1+10^((Log EC50-X)×Hill Slope), where Y is percent activity, B is minimum percent activity, T is maximum percent activity, X is logarithm of compound and Hill Slope=slope factor or Hill coefficient.

[1] = [BPS], read-out: NAMPT IC50 (μM) [BPS]
[2] = [HDB], read-out: NAMPT IC50 (μM) [HDB]

Sequence of human NAMPT enzyme (His-hNAMPT) (P43490 whole entry): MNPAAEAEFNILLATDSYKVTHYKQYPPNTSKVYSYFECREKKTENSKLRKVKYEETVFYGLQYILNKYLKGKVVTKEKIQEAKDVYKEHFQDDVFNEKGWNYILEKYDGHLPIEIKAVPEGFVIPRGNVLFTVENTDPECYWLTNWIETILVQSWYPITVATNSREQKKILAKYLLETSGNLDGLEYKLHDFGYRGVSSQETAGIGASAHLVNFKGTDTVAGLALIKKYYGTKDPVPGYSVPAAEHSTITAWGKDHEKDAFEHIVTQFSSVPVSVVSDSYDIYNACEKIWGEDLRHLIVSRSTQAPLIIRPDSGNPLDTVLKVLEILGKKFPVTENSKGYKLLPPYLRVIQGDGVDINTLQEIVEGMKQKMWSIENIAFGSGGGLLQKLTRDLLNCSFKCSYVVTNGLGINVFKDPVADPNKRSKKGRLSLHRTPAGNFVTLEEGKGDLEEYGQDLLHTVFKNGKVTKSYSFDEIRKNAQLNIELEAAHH

Row | IC50 [1] [µM] | IC50 [2] [µM] | SMILES
1 | > 30 |  | CC(C)(C)OC(=O)N1C[C@@H]2[C@@H](CCNC(=O)C(C)(C)C)[C@@H]2C1 [Example 8, (1R,5S,6s)-tert-butyl 6-(2-pivalamidoethyl)-3-azabicyclo[3.1.0]hexane-3-carboxylate]
2 |  | 0.01 to 0.49 | Cc1noc2ncc(/C=C/C(=O)NCC[C@@H]3[C@H]4CN(C(=O)OC(C)(C)C)C[C@@H]34)cc12 [Example 9, tert-butyl (1R,5S,6s)-6-(2-((E)-3-(3-methylisoxazolo[5,4-b]pyridin-5-yl)acrylamido)ethyl)-3-azabicyclo[3.1.0]hexane-3-carboxylate]
3 | 0.01 to 0.49 |  | CC(C)(C)OC(=O)N1C[C@@H]2[C@@H](CCNC(=O)[C@H]3C[C@@H]3c3cccnc3)[C@@H]2C1 [Example 10, (1R,5S,6s)-tert-butyl 6-(2-((1R,2R)-2-(pyridin-3-yl)cyclopropanecarbox-amido)ethyl)-3-azabicyclo[3.1.0]hexane-3-carboxylate]
4 | 0.5 to 0.99 |  | CC(C)(C)OC(=O)N1C[C@@H]2[C@@H](CCNC(=O)c3nc4ccncc4s3)[C@@H]2C1 [Example 11, (1R,5S,6s)-tert-butyl 6-(2-(thiazolo[5,4-c]pyridine-2-carboxamido)ethyl)-3-azabicyclo[3.1.0]hexane-3-carboxylate]
5 | < 0.01 |  | CC(C)(C)OC(=O)N1C[C@@H]2[C@@H](CCNC(=O)c3cc(-c4cccnc4)on3)[C@@H]2C1 [Example 12, (1R,5S,6s)-tert-butyl 6-(2-(5-(pyridin-3-yl)isoxazole-3-carboxamido)ethyl)-3-azabicyclo[3.1.0]hexane-3-carboxylate]
6 |  | 0.01 to 0.49 | CC(C)(C)OC(=O)N1C[C@@H]2[C@@H](CCNC(=O)c3cc4cc(N)ncc4s3)[C@@H]2C1 [Example 13, (1R,5S,6s)-tert-butyl 6-(2-(5-aminothieno[2,3-c]pyridine-2-carboxamido)ethyl)-3-azabicyclo[3.1.0]hexane-3-carboxylate]
7 | > 30 |  | CC(=O)NCC[C@@H]1[C@H]2CN(C(=O)OC(C)(C)C)C[C@@H]12 [Example 14, (1R,5S,6s)-tert-butyl 6-(2-azetamidoethyl)-3-azabicyclo[3.1.0]hexane-3-carboxylate]
8 | 0.01 to 0.49 |  | CC(C)(C)OC(=O)N1C[C@@H]2[C@@H](CCNC(=O)N3Cc4ccccc4C3)[C@@H]2C1 [Example 15, (1R,5S,6s)-tert-butyl 6-(2-(isoindoline-2-carboxamido)ethyl)-3-azabicyclo[3.1.0]hexane-3-carboxylate]
9 | 0.01 to 0.49 |  | CC(C)(C)OC(=O)N1C[C@@H]2[C@@H](CCNC(=O)N3CCc4sccc4C3)[C@@H]2C1 [Example 16, (1R,5S,6s)-tert-butyl 6-(2-(4,5,6,7-tetrahydrothioeno[3,2-c]pyridine-5-carboxamido)ethyl)-3-azabicyclo[3.1.0]hexane-3-carboxylate]
10 | 0.01 to 0.49 | < 0.01 | CC(C)(C)OC(=O)N1C[C@@H]2[C@@H](CCNC(=O)N3CC(c4cccnc4)C3)[C@@H]2C1 [Example 17, (1R,5S,6s)-tert-butyl 6-(2-(3-(pyridin-3-yl)azetidine-1-carboxamido)ethyl)-3-azabicyclo[3.1.0]hexane-3-carboxylate]
11 | 0.01 to 0.49 |  | CC(C)(C)OC(=O)N1C[C@@H]2[C@@H](CCNC(=NC#N)Nc3ccncc3)[C@@H]2C1 [Example 18, (1R,5S,6s)-tert-butyl 6-(2-((E)-2-cyano-3-(pyridin-4-yl)guanidino)ethyl)-3-azabicyclo[3.1.0]hexane-3-carboxylate]
12 | 0.01 to 0.49 |  | CC(C)(C)OC(=O)N1C[C@@H]2[C@@H](CCNC(=O)NCc3cccnc3)[C@@H]2C1 [Example 19, (1R,5S,6s)-tert-butyl 6-(2-(3-((pyridin-3-yl)methyl)ureido)ethyl)-3-azabicyclo[3.1.0]hexane-3-carboxylate]
13 | 0.01 to 0.49 |  | CC(C)(C)OC(=O)N1C[C@@H]2[C@@H](CCNC(=O)N3Cc4ccncc4C3)[C@@H]2C1 [Example 20, (1R,5S,6s)-tert-butyl 6-(2-(2,3-dihydro-1H-pyrrolo[3,4-c]pyridine-2-carboxamido)ethyl)-3-azabicyclo[3.1.0]hexane-3-carboxylate]
14 | 0.01 to 0.49 |  | CC1(OC(=O)N2C[C@@H]3[C@@H](CCNC(=O)/C=C/c4cccnc4)[C@@H]3C2)COC1 [Example 21, (1R,5S,6s)-3-methyloxetan-3-yl 6-(2-((E)-3-(pyridin-3-yl)acrylamido)ethyl)-3-azabicyclo[3.1.0]hexane-3-carboxylate]
15 | 0.01 to 0.49 |  | O=C(/C=C/c1cccnc1)NCC[C@@H]1[C@H]2CN(C(=O)c3ccccc3)C[C@@H]12 [Example 22, (E)-N-(2-((1R,5S,6s)-3-benzoyl-3-azabicyclo[3.1.0]hexan-6-yl)ethyl)-3-(pyridin-3-yl)acrylamide]
16 | 0.01 to 0.49 | 0.01 to 0.49 | O=C(/C=C/c1cccnc1)NCC[C@@H]1[C@H]2CN(S(=O)(=O)c3ccccc3)C[C@@H]12 [Example 23, (E)-N-(2-((1R,5S,6s)-3-(phenylsulfonyl)-3-azabicyclo[3.1.0]hexan-6-yl)ethyl)-3-(pyridin-3-yl)acrylamide]
17 | 0.01 to 0.49 |  | CC1(OC(=O)N2C[C@@H]3[C@@H](CCNC(=O)/C=C/c4ccc(N)nc4)[C@@H]3C2)COC1 [Example 24, (1R,5S,6s)-3-methyloxetan-3-yl 6-(2-((E)-3-(6-aminopyridin-3-yl)acrylamido)ethyl)-3-azabicyclo[3.1.0]hexane-3-carboxylate]
18 | 0.01 to 0.49 | 0.01 to 0.49 | Nc1ccc(/C=C/C(=O)NCC[C@@H]2[C@H]3CN(C(=O)c4ccccc4)C[C@@H]23)cn1 [Example 25, (E)-3-(6-aminopyridin-3-yl)-N-(2-((1R,5S,6s)-3-benzoyl-3-azabicyclo[3.1.0]hexan-6-yl)ethyl)acrylamide]
19 | 0.01 to 0.49 |  | CC1(OC(=O)N2C[C@@H]3[C@@H](CCNC(=O)c4cc5ccncc5s4)[C@@H]3C2)COC1 [Example 26, (1R,5S,6s)-3-methyloxetan-3-yl 6-(2-(thieno[2,3-c]pyridine-2-carboxamido)ethyl)-3-azabicyclo[3.1.0]hexane-3-carboxylate]
20 | 0.01 to 0.49 |  | CC1(OC(=O)N2C[C@@H]3[C@@H](CCNC(=O)c4cc5ccncc5o4)[C@@H]3C2)COC1 [Example 27, (1R,5S,6s)-3-methyloxetan-3-yl 6-(2-(furo[2,3-c]pyridine-2-carboxamido)ethyl)-3-azabicyclo[3.1.0]hexane-3-carboxylate]
21 | 0.01 to 0.49 |  | Nc1ccc(/C=C/C(=O)NCC[C@@H]2[C@H]3CN(C(=O)NCc4ccccc4)C[C@@H]23)cn1 [Example 28, (1R,5S,6s)-6-(2-((E)-3-(6-aminopyridin-3-yl)acrylamido)ethyl)-N-benzyl-3-azabicyclo[3.1.0]hexane-3-carboxamide]
22 | 0.01 to 0.49 |  | Nc1ccc(/C=C/C(=O)NCC[C@@H]2[C@H]3CN(C(=O)N4CCOCC4)C[C@@H]23)cn1 [Example 29, (E)-3-(6-aminopyridin-3-yl)-N-(2-((1R,5S,6s)-3-(morpholine-4-carbonyl)-3-azabicyclo[3.1.0]hexan-6-yl)ethyl)acrylamide]
23 | 0.01 to 0.49 | 0.01 to 0.49 | O=C(NCC[C@@H]1[C@H]2CN(C(=O)c3ccccc3)C[C@@H]12)c1cc2ccncc2o1 [Example 30, N-(2-((1R,5S,6s)-3-benzoyl-3-azabicyclo[3.1.0]hexan-6-yl)ethyl)furo[2,3-c]pyridine-2-carboxamide]
